Test results: patent publication US20240197871A1, “COMBINATION OF A CAR T CELL THERAPY AND AN IMMUNOMODULATORY COMPOUND FOR TREATMENT OF LYMPHOMA” (Juno Therapeutics, Inc., priority 2021, published 2024)

Experiments:
[1] = tested on: chronically stimulated anti-CD19 CAR T cells; assay: RNA-seq gene expression of chronically stimulated CAR T cells; assay type: cell-based, human
Procedure: Five days after re-challenge, CAR T cells were sorted from tumor spheroids, and gene expression was analyzed by RNA sequencing (RNA-seq). Libraries for RNA-seq were sequenced, and reads were mapped to the Genome Reference Consortium Human Build 38 (GRCh38) human reference genome. Gene expression levels were quantified, and differential expression was performed using DESeq2. Gene expression was compared between chronically stimulated CAR T cells treated with Compound C during stimulation and untreated chronically stimulated CAR T cells, as well as between untreated chronically stimulated CAR T cells and non-stimulated CAR T cells. Differential expression was calculated based on treatment effects with 1 nM and 10 nM of the compounds. Differential locus selection cut offs were q≤0.05 and absolute log2 fold change ≥0.5.
Pathway analysis of CAR T RNA-seq data using the Kyoto Encyclopedia of Genes and Genomes (KEGG) was also performed using clusterProfiler. Pathways whose upregulation by chronic stimulation was prevented or reduced by treatment with Compound C are shown in FIG. 3J and include specific cell proliferation pathways. Gene ratios as shown in FIG. 3J were calculated as the percentage of significant genes over total genes in a given pathway.
Gene expression of chronically stimulated CAR T cells was also analyzed by RNA sequencing as in Example 3. […]

Ikaros = target: T1, Ikaros (Homo sapiens, UniProt Q13422+Q96SW2); assay: Ikaros levels in anti-CD19 CAR T cells after 24-hour or six-day exposure; assay type: cell-based
T1 construct: analyzed by flow cytometry to assess intracellular levels of Ikaros and Aiolos in CAR+ T cells; endogenous in cells; host or cells: primary human CD4+ and CD8+ T cells from healthy donors, lentivirally transduced with an anti-CD19 CAR
Procedure: Due to the robust impact of Compound C on degradation of Ikaros and Aiolos, in which excessive or sustained treatment may impact CAR T cell function negatively and/or cause neutropenia secondary to neutrophil maturation arrest, an intermittent dosing schedule for treatment with Compound C was evaluated for its ability to effect deep, but transient degradation of Ikaros. To do so, the pharmacokinetics of a weekly (Q7D) 0.3-mg dose of Compound C were modelled. […] The effects of a weekly 0.3-mg dose of Compound C on neutrophil development were also modelled.
FIGS. 6B and 6C show Ikaros levels in anti-CD19 CAR T cells, generated as described in Example 1, following 24-hour (FIG. 6B) or six-day exposure (FIG. 6C) to Compound C.

[2] = tested on: CAR-expressing CD8 T cells; assay: T cell memory markers CD27/CCR7 after chronic stimulation (flow cytometry); assay type: cell-based, human
Procedure: Similar results are shown in FIG. 7B for a separate experiment in which CAR T cells were chronically stimulated for 7 days in the presence or absence of Compound C. In this experiment, Compound C was present at (i) 50 nM for one day and 1 nM for the remaining six days of stimulation, (ii) 25 nM for one day and 0.5 nM for the remaining six days of stimulation, (iii) 10 nM for all seven days of stimulation, or (iv) 1 nM for all seven days of stimulation. Stimulated CAR T cells were then re-challenged with Raji lymphoma tumor spheroids in the absence of Compound C, after which cytolytic activity was assessed over a four-day period. […] The CAR T cells stimulated for seven days in the presence or absence of Compound C were also analyzed for phenotypic T cell memory markers using flow cytometry following chronic stimulation. […] CD27/CCR7 expression, which is a marker for less differentiated, naïve-like T cells, was highest in CAR-expressing CD8 T cells stimulated in the presence of Compound C at 50 nM for one day and 1 nM for the remaining six days of stimulation (* P<0.05).

T1 sequence (Q13422 whole entry): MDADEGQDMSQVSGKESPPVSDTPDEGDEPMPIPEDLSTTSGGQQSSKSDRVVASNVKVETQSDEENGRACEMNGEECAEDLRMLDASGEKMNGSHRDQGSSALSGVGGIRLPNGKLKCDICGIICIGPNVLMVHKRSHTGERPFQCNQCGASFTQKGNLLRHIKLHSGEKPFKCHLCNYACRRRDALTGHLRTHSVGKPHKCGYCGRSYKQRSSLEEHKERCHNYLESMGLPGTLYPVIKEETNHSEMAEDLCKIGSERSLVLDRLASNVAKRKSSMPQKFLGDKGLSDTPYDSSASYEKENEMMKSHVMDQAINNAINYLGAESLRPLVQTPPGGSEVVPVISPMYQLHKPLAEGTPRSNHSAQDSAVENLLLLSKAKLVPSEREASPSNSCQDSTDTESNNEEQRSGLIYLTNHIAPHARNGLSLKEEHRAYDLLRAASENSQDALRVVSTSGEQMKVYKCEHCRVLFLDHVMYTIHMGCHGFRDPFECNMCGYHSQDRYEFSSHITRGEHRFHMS
T1 sequence (Q96SW2 whole entry): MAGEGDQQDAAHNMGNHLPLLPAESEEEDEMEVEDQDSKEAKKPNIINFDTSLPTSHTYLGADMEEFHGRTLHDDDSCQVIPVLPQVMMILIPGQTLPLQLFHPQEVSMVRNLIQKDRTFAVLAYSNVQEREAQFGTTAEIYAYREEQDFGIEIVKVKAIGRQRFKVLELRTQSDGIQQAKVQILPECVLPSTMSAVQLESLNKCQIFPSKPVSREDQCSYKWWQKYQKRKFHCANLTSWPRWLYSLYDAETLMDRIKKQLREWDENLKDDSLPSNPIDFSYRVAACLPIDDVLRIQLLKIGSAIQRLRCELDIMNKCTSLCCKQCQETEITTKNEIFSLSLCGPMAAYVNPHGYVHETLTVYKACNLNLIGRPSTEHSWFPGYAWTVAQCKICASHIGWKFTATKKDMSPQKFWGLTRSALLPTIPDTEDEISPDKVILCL
T1 sequence (Q16531 whole entry partner): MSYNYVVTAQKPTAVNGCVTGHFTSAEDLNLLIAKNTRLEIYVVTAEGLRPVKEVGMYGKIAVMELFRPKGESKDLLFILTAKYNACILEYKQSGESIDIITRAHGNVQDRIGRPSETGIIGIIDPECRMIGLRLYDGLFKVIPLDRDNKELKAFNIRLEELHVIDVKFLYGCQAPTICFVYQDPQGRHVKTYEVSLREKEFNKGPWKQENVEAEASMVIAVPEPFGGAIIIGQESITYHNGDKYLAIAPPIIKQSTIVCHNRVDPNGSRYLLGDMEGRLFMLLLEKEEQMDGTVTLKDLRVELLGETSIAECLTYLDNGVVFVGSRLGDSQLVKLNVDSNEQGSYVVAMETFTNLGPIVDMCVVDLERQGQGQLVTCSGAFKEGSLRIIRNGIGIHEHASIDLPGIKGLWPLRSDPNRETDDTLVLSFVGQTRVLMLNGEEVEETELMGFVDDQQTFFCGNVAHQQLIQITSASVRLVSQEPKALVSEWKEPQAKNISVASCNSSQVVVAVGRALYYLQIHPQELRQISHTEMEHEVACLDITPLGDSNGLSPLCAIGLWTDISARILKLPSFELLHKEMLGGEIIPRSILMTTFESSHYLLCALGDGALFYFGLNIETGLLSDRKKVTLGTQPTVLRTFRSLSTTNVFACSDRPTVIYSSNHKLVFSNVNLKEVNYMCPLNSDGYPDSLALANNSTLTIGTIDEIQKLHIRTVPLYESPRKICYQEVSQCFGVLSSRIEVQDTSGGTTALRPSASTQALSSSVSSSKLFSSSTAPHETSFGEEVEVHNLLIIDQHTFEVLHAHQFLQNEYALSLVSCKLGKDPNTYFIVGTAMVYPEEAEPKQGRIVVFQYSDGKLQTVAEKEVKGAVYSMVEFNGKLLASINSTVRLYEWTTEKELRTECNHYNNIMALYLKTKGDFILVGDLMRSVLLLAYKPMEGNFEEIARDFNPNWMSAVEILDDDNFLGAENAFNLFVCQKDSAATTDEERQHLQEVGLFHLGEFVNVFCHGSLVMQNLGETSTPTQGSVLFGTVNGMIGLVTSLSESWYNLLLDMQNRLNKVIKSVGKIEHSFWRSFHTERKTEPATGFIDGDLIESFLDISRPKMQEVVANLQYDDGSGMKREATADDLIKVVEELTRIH

Structure (SMILES): O=C1CC[C@H](N2C(=O)c3cccc(NCc4ccc(CN5CC(N6CCOCC6)C5)cc4F)c3C2=O)C(=O)N1 [Compound C, (S)-2-(2,6-dioxopiperidin-3-yl)-4-((2-fluoro-4-((3-morpholinoazetidin-1-yl)methyl)benzyl)amino)isoindoline-1,3-dione]
- gene expression vs untreated chronically stimulated CAR T cells (RNA-seq) ([1]; treatment during chronic stimulation (concurrent), 1 nM and 10 nM): altered gene expression
- gene expression vs untreated chronically stimulated CAR T cells (RNA-seq) ([1]; treatment during re-challenge (rescue)): altered gene expression
- Ikaros levels in anti-CD19 CAR T cells (Ikaros; 24-hour exposure, dose levels as low as 0.01 μM): lead to Ikaros degradation
- Ikaros levels in anti-CD19 CAR T cells (Ikaros; six-day exposure to 0.001 μM): did not affect Ikaros levels
- CD27/CCR7 expression ([2]; 50 nM for one day and 1 nM for the remaining six days of stimulation, P<0.05): highest
- percentage of CD27+/CCR7+ cells vs stimulation in the absence of compound ([2]; seven days of chronic stimulation in the presence of compound): higher percentages of CD27+/CCR7+ cells
